Experimental data taken from US12638439B2, “Method of using human spheroids for drug discovery” (AxoSim, Inc., priority 2019, dated 2026).
“Also recorded” adds a separate entry of the source. Where a name gives a salt, the structure may show the parent alone.

Legend:
[1] = test system: RTT spheroids; assay: FLIPR spontaneous calcium oscillation assay of iPSC-derived cortical brain spheroids (SMART library screen); assay type: cell-based, human; conditions: for outcome of the SMART library screen (multivariant analysis): 298-compound SMART library on WT and RTT matured spheroids; for rescue or reversal of the RTT disease state, multi parametric plot of spheroid calcium oscillation activity / effect of the drugs on the condition (spontaneous calcium oscillations): 1 micro molar; for rescue or reversal of the RTT disease state, multi parametric plot of spheroid calcium oscillation activity: FIG. 3 and FIG. 4, compared with WT spheroids; for effect of the drugs on the condition (spontaneous calcium oscillations): WT and RTT spheroids, FIG. 4
Excerpt: In one embodiment, the present disclosure provides human induced pluripotent stem cells iPScs that are subsequently differentiated into human cortical neurons comprising neurons and astrocytes in approximately a 50:50 ratio. The ratio can be adjusted on a case by case basis depending on the particular disease of interest from 1 to 99% either neurons or astrocytes. The 3D spheroids are comprised of approximately 50:50 neurons to astrocytes ratio +1-10%. The methods of differentiating and forming 3 dimensional spheroids and functional testing with FLIPR optical techniques is described in copending patent application No. 62/532667. In the examples in this invention we use a disease model cell line which are known to carry genes responsible for Rett syndrome.
In the present disclosure both Wild Type (WT) and Rett Disease (RTT) cortical brain human tissue spheroids were prepared for the purpose of high throughput screening to identify therapeutic compounds that can modulate the brain activity in an attempt to revert or rescue the disease state back to near normal activity or homeostasis. For example, the cell lines employed (control or “WT” and disease “RTT”) may be from a family without and with the Rett disease phenotype.
The method disclosed herein may, in one embodiment, include manufacturing 3D spheroids in 384 well round bottom microtiter plates, see, e.g. U.S. patent application No. 62/532,667, the disclosure of which is incorporated herein. […] In the present disclosure, 6 to 14 weeks of maturation is a maturation range for testing, e.g., 8 to 10 weeks of maturation.
The oscillations being measured are from calcium flux moving into and out of the cells at ambient conditions. The oscillations are spontaneous and not generated by an external source. The measurements are conducted in real time and the data captured by using a technique called FLIPR that is well known in the prior art. […] When analyzing the data, it is important to understand that multiple factors contribute to the signal being recorded by the FLIPR software. Therefore, in the present disclosure 7 parameters are recorded to determine if the data generated from the spheroid is meaningful. The parameters measured are, e.g., peak count, peak width, average peak spacing, peak spacing standard deviation, peak decay time, peak rise time, and/or peak amplitude.
In the present disclosure, the SMART library that contained 298 compounds was used on both WT and RTT matured spheroids over several weeks and the FLIPR data collected and analyzed for potential therapeutic efficacy. The SMART (Selected Molecular Agents for Rett Therapy) library of compounds is well vetted by modern day bioinformatics methods, tightly focused on Rett syndrome and its biological causes. The library is currently housed at the University of Illinois-Chicago. […] With the goals in mind to save both time and resources and accelerate drug discovery for Rett syndrome, the compounds in the SMART library are readily available to investigators working on Rett syndrome research.

[2] = test system: humans; conditions: 1950s and 1960s; cited from earlier work
[3] = test system: pregnant mice; conditions: given to pregnant mice; cited from earlier work
[4] = test system: pregnant rats; conditions: given to pregnant rats; cited from earlier work

| Compound | outcome of the SMART library screen (multivariant analysis) [1] | further results |
| --- | --- | --- |
| CC(=O)Nc1nnc(S(N)(=O)=O)s1 [Acetazolamide] | therapeutics of interest |  |
| CNCC[C@@H](Oc1ccccc1C)c1ccccc1 [Atomoxetine, Atomoxetine (Tomoxetine)] | therapeutics of interest |  |
| CC(C)n1c(=O)n(C(=O)NC2CC3CCC(C2)N3C)c2ccccc21 (stereo not shown) [BIMU-8] | therapeutics of interest | rescue or reversal of the RTT disease state, multi parametric plot of spheroid calcium oscillation activity ([1]; RTT spheroids): significant effect on reversing or rescuing the RTT disease state; rescue of spontaneous calcium peak frequency and amplitude behavior to the WT state ([1]; RTT spheroids, 2-week exposure time, FIG. 5): rescuing the oscillation activity back to WT normal behavior; also recorded: nearly rescued the WT state |
| NCC(CC(=O)O)c1ccc(Cl)cc1 (stereo not shown) [Baclofen] | therapeutics of interest |  |
| OC(CCN1CCCCC1)(c1ccccc1)C1CCCCC1 (stereo not shown) [Benzhexol Hydrochloride] | therapeutics of interest |  |
| CN(C)CCCOc1nn(Cc2ccccc2)c2ccccc12.Cl [Benzydiamine Hydrochloride] | therapeutics of interest |  |
| OC(CCN1CCCCC1)(c1ccccc1)C1CC2C=CC1C2 (stereo not shown) [Biperiden] | therapeutics of interest |  |
| O=C1Nc2cc(Br)ccc2/C1=C1/Nc2ccccc2/C1=N\O [Bromoindirubin-3-oxime] | therapeutics of interest |  |
| COc1cc(N)c(Cl)cc1C(=O)NC1CCN(Cc2ccccc2)CC1 [Clebopride Mal ate] | therapeutics of interest |  |
| CN1CCC[C@@H]1Cc1c[nH]c2ccc(CCS(=O)(=O)c3ccccc3)cc12 [Eletriptan HBr Salt] | therapeutics of interest |  |
| Oc1cc(O)c2c(c1)O[C@H](c1cc(O)c(O)c(O)c1)[C@H](O)C2 [Epigallocatechin] |  | rescue or reversal of the RTT disease state, multi parametric plot of spheroid calcium oscillation activity ([1]; RTT spheroids): no effect to rescue or reverse the spontaneous calcium oscillations; effect of the drugs on the condition (spontaneous calcium oscillations) [1]: made the condition worse |
| CC1Nc2ccc(Cl)cc2S(=O)(=O)N1 (stereo not shown) [IDRA-21] | therapeutics of interest |  |
| COc1cc(C(C)=O)ccc1OCCCN1CCC(c2noc3cc(F)ccc23)CC1 [Iloperidone] | therapeutics of interest |  |
| Cc1nccn1CC1CCc2c(c3ccccc3n2C)C1=O (stereo not shown) [Ondansetron] | therapeutics of interest |  |
| CC(C)COc1ccc(CNC(=O)N(Cc2ccc(F)cc2)C2CCN(C)CC2)cc1 [Pinmavanserin] | therapeutics of interest |  |
| O=c1n(CCCN2CCN(c3cccc(Cl)c3)CC2)nc2ccccn12 [Trazodone, Trazodone (Beneficat)] | therapeutics of interest |  |
| CCOC(=O)C1=C[C@]2(CC)CCCN3CCc4c(n1c1ccccc41)[C@@H]32 [Vinpocetine] | therapeutics of interest |  |
| O=C(CCCCCCC(=O)Nc1ccccc1)NO [Vorinostat] |  | rescue or reversal of the RTT disease state, multi parametric plot of spheroid calcium oscillation activity ([1]; RTT spheroids): no effect to rescue or reverse the spontaneous calcium oscillations; effect of the drugs on the condition (spontaneous calcium oscillations) [1]: made the condition worse |
| O=C1CCC(N2C(=O)c3ccccc3C2=O)C(=O)N1 (stereo not shown) [thalidomide] |  | birth defects [2]: caused an international epidemic of birth defects; birth defects [3]: does not cause birth defects; birth defects [4]: does not cause birth defects |
